# In patent US20030144317A1, “Novel benzoylecgonine compositions and methods for producing them” (priority 2001, published 2003):
# Tests used:
# [1] = Stability testing (initial 5% w/w water) of the composition produced in Example 4; conditions: for relative amount of component at end of reaction (start of the stability trial): composition of Example 4 (initial 5% w/w water; H2O content 4.76 w/w), b61 reads the values as % of the composition
# [2] = Stability testing (absence of water) of the composition produced in Example 3; conditions: for relative amount of component at end of reaction (start of the stability trial): composition of Example 3 (no water added; H2O content 0.12 w/w), b61 reads the values as % of the composition
# [3] = composition of Example 4 (initial 5% w/w water), 25° C., 13 days
# [4] = composition of Example 4 (initial 5% w/w water), 40° C., 13 days
# [5] = composition of Example 3 (absence of water), 25° C., 13 days
# [6] = composition of Example 3 (absence of water), 40° C., 13 days
smiles,measurement,setting,value
"CN1[C@H]2CC[C@@H]1[C@@H](C(=O)O)[C@@H](OC(=O)c1ccccc1)C2 [BEc, benzoylecgonine]","relative amount of component, stability at 25° C. after 13 days",[1]; [3],64.02
same,"relative amount of component, stability at 40° C. after 13 days",[1]; [4],66.31
same,relative amount of component at end of reaction (start of the stability trial),[1]; day 16 of reaction at 50° C.,63.8
same,"relative amount of component, stability at 25° C. after 13 days",[2]; [5],3.99
same,"relative amount of component, stability at 40° C. after 13 days",[2]; [6],4.28
same,relative amount of component at end of reaction (start of the stability trial),[2]; day 15 of reaction at 60° C.,4.097
"COC(=O)[C@H]1[C@@H](OC(=O)c2ccccc2)C[C@@H]2CC[C@H]1N2C [BME, 3-benzoyloxy-2-carbomethyoxy-8-methyl-8-azabicyclo[3.2.1]octane]","BME % (w/w), stability at 25° C. after 13 days",[1]; [3],0.07 % (w/w)
same,"relative amount of component, stability at 25° C. after 13 days",[1]; [3],0.84
same,"BME % (w/w), stability at 40° C. after 13 days",[1]; [4],0.04 % (w/w)
same,"relative amount of component, stability at 40° C. after 13 days",[1]; [4],0.46
same,BME % (w/w) at end of reaction (start of the stability trial),"[1]; composition of Example 4 (initial 5% w/w water), day 16 of reaction at 50° C.",0.08 % (w/w)
same,relative amount of component at end of reaction (start of the stability trial),[1]; day 16 of reaction at 50° C.,0.95
same,"BME % (w/w), stability at 25° C. after 13 days",[2]; [5],0.08 % (w/w)
same,"relative amount of component, stability at 25° C. after 13 days",[2]; [5],1.19
same,"BME % (w/w), stability at 40° C. after 13 days",[2]; [6],0.06 % (w/w)
same,"relative amount of component, stability at 40° C. after 13 days",[2]; [6],0.90
same,BME % (w/w) at end of reaction (start of the stability trial),"[2]; composition of Example 3 (absence of water), day 15 of reaction at 60° C.",0.13 % (w/w)
same,relative amount of component at end of reaction (start of the stability trial),[2]; day 15 of reaction at 60° C.,1.76
COC(=O)C1=CC[C@@H]2CC[C@H]1N2C [Methyl Ecd],"relative amount of component, stability at 25° C. after 13 days",[1]; [3],0.86
same,"relative amount of component, stability at 40° C. after 13 days",[1]; [4],0.80
same,relative amount of component at end of reaction (start of the stability trial),[1]; day 16 of reaction at 50° C.,1.00
same,"relative amount of component, stability at 25° C. after 13 days",[2]; [5],1.33
same,"relative amount of component, stability at 40° C. after 13 days",[2]; [6],1.26
same,relative amount of component at end of reaction (start of the stability trial),[2]; day 15 of reaction at 60° C.,1.42
"O=C(O)c1ccccc1 [BA, benzoic acid]","relative amount of component, stability at 25° C. after 13 days",[1]; [3],9.17
same,"relative amount of component, stability at 40° C. after 13 days",[1]; [4],9.68
same,relative amount of component at end of reaction (start of the stability trial),[1]; day 16 of reaction at 50° C.,8.99
same,"relative amount of component, stability at 25° C. after 13 days",[2]; [5],27.35
same,"relative amount of component, stability at 40° C. after 13 days",[2]; [6],28.75
same,relative amount of component at end of reaction (start of the stability trial),[2]; day 15 of reaction at 60° C.,26.05
